In ChEMBL document CHEMBL1147193, “New 5-substituted thiazolo[3,2-b][1,2,4]triazol-6-ones: synthesis and anticancer evaluation” (2007):

Columns and labels:
Format in all cases: functional
MCF7 = assay: Anticancer activity against human MCF7 cells assessed as growth of cells at 100 uM relative to untreated cells
SF-268 = assay: Anticancer activity against human SF268 cells assessed as growth of cells at 100 uM relative to untreated cells
NCI-H460 = assay: Anticancer activity against human NCI-H460 cells assessed as growth of cells at 100 uM relative to untreated cells

`O=c1/c(=C/C=C\c2ccccc2)sc2ncnn12` gave an Activity (MCF7) of 138%, an Activity (SF-268) of 128% and an Activity (NCI-H460) of 95%.
